What was measured:
volunteers with CUD = test: Phase 2a study, safety; assay type: in vivo, human
Source text: Data from the first dose level were reviewed by the Data Safety Monitoring Board before ascending to the next dose level.
On day 6 of each period, before discharge from the research center, participants had sitting blood pressure and pulse rate measurements, clinical laboratory tests (chemistry, hematology and urinalysis) and body weight taken. The study start date was 23 October 2018; primary completion date was 31 July 2020; and actual study completion date was 1 January 2021. After the second study phase, participants were contacted 28 d after discharge so that we could inquire about the occurrence of any serious AEs (including pregnancies) that may have occurred since leaving the research site.

squirrel monkeys = test: THC-induced reinstatement of THC seeking in squirrel monkeys; assay type: in vivo, Saimiri sciureus
Source text: Two experimental models were used: (1) THC i.v. self-administration and (2) THC-induced reinstatement of THC seeking. These two approaches were used to model the maintenance of daily cannabis use and cannabis seeking after a period of abstinence.
For the THC-induced reinstatement of THC seeking, the monkeys underwent daily extinction sessions during which lever presses led to vehicle infusions and the visual cues previously paired with THC infusions but not THC. […] THC injections were given immediately before the start of the test sessions. During testing, lever presses (FR10) continued to produce only vehicle injections and the THC-paired cues. […] Recommendations from the Guide for the Care and Use of Laboratory Animals (8th edition) and guidelines of the Institutional Animal Care and Use Committee of the Intramural Research Program, NIDA, NIH, DHHS, were followed. Animals were maintained in facilities fully accredited by the AAALAC. Operation of the experimental chambers and data collection were controlled by IBM computers using the MED Associates MED-PC software package.

[1] = GLP mutagenic and genotoxic studies (Ames, chromosome aberration, micronucleus); settings: GLP in vitro and in vivo studies
Procedure: The dose of 816 µg per plate is approximately a concentration of 84 µM.
Human lymphocytes were taken from young (18–35 years old) healthy non-smoker individuals.
This assay was carried out both with and without metabolic activation using Aroclor 1254-induced S9 from rat livers (5%). In the test performed without metabolic activation, two treatment durations were studied: (1) 4 h + 16 h recovery period (short-term treatment) and (2) 20 h without recovery period (continuous treatment). In the test performed with metabolic activation, the treatment period of 4 h + 16 h recovery period with 5% S9 mix was used.
As a control for the genotoxicity induction, a single i.p. injection 24 h before sampling of the reference substance cyclophosphamide (CPA, Baxter, batch 5K044J in NaCl at 0.9% in distilled water, at a dose of 25 mg kg^−1 under a volume of 10 ml kg^−1) was used.

human CB1 = human CB1 (Homo sapiens, UniProt P21554); test: [3H]CP55,940 equilibrium binding, HEK293-hCB1 cell membranes; design: 3x hemagglutinin (3HA) (N); expressed in transfected cells; membrane preparation; settings: up to 10 µM
rats = test: Irwin test and body temperature (GLP); assay type: in vivo; settings: rats, GLP
Procedure: The study involved four groups of six male Wistar rats weighing between 154.0 g and 185.9 g. […] On study day, animals were first scored by the Irwin standardized observation battery, and body temperature was measured. […] Irwin scores and measurement of body temperature were done again at 1, 3, 6, 8 and 24 h after dose.

[2] = Reinstatement of THC self-administration

Sequence of human CB1 (P21554 whole entry): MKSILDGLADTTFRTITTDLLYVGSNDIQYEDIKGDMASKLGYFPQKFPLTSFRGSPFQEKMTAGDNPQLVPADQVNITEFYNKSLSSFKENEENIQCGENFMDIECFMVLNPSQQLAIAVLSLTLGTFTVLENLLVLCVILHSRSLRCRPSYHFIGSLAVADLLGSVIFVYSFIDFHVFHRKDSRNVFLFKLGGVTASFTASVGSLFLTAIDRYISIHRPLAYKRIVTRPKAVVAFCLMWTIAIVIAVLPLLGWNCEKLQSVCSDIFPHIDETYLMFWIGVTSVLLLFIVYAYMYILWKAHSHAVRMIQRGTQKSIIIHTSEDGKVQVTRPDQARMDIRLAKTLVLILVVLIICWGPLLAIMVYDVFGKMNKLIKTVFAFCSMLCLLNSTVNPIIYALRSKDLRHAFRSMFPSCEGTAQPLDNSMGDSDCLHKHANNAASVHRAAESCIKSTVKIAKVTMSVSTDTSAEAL

With COc1ccc(CO[C@H]2CC[C@@]3(C)C(=CC[C@H]4[C@@H]5CC[C@H](C(C)=O)[C@@]5(C)CC[C@@H]43)C2)cc1 [AEF0117, 3β-(4-methoxybenzyloxy)pregn-5-en-20-one] the “Number of TEAEs” value (volunteers with CUD; 0.06 mg/d 5 d) was 9 E, the “Number of participants with a TEAE leading to discontinuation” value (volunteers with CUD; 0.06 mg/d 5 d) was 0 n (%) and the “Number of participants with an SAE” value (volunteers with CUD; 0.06 mg/d 5 d) was 0 n (%). The “Number of participants with at least one TEAE” value (volunteers with CUD; 0.06 mg/d 5 d) was 6 (42.9) n (%), the “Participants with TEAE: Mild” value (volunteers with CUD; 0.06 mg/d 5 d) was 6 (42.9) n (%) and the “Participants with TEAE: Moderate” value (volunteers with CUD; 0.06 mg/d 5 d) was 0 n (%). For the same molecule, the “Participants with TEAE: Not related” value (volunteers with CUD; 0.06 mg/d 5 d) was 2 (14.3) n (%), the “Participants with TEAE: Related” value (volunteers with CUD; 0.06 mg/d 5 d) was 6 (42.9) n (%) and the “Participants with TEAE: Severe” value (volunteers with CUD; 0.06 mg/d 5 d) was 0 n (%). For the same molecule, the “TEAEs by SOC: Cardiac disorders” value (volunteers with CUD; 0.06 mg/d 5 d) was 1 (7.1) n (%), the “TEAEs by SOC: Ear and labyrinth disorders” value (volunteers with CUD; 0.06 mg/d 5 d) was 0 n (%) and the “TEAEs by SOC: Gastrointestinal disorders” value (volunteers with CUD; 0.06 mg/d 5 d) was 0 n (%). For the same molecule, the “TEAEs by SOC: General disorders and administration site conditions” value (volunteers with CUD; 0.06 mg/d 5 d) was 1 (7.1) n (%), the “TEAEs by SOC: Infections and infestations” value (volunteers with CUD; 0.06 mg/d 5 d) was 0 n (%) and the “TEAEs by SOC: Injury, poisoning and procedural complications” value (volunteers with CUD; 0.06 mg/d 5 d) was 0 n (%). The “TEAEs by SOC: Investigations” value (volunteers with CUD; 0.06 mg/d 5 d) was 3 (21.4) n (%), the “TEAEs by SOC: Musculoskeletal and connective tissue disorders” value (volunteers with CUD; 0.06 mg/d 5 d) was 0 n (%) and the “TEAEs by SOC: Nervous system disorders” value (volunteers with CUD; 0.06 mg/d 5 d) was 3 (21.4) n (%). The “TEAEs by SOC: Psychiatric disorders” value (volunteers with CUD; 0.06 mg/d 5 d) was 0 n (%), the “TEAEs by SOC: Renal and urinary disorders” value (volunteers with CUD; 0.06 mg/d 5 d) was 0 n (%) and the “TEAEs by SOC: Respiratory, thoracic and mediastinal disorders” value (volunteers with CUD; 0.06 mg/d 5 d) was 1 (7.1) n (%). The “TEAEs by SOC: Skin and subcutaneous tissue disorders” value (volunteers with CUD; 0.06 mg/d 5 d) was 0 n (%), the “Number of TEAEs” value (volunteers with CUD; 1 mg/d 5 d) was 24 E and the “Number of participants with a TEAE leading to discontinuation” value (volunteers with CUD; 1 mg/d 5 d) was 1 (6.7) n (%). For the same molecule, the “Number of participants with an SAE” value (volunteers with CUD; 1 mg/d 5 d) was 0 n (%), the “Number of participants with at least one TEAE” value (volunteers with CUD; 1 mg/d 5 d) was 8 (53.3) n (%) and the “Participants with TEAE: Mild” value (volunteers with CUD; 1 mg/d 5 d) was 8 (53.3) n (%). For the same molecule, the “Participants with TEAE: Moderate” value (volunteers with CUD; 1 mg/d 5 d) was 1 (6.7) n (%), the “Participants with TEAE: Not related” value (volunteers with CUD; 1 mg/d 5 d) was 1 (6.7) n (%) and the “Participants with TEAE: Related” value (volunteers with CUD; 1 mg/d 5 d) was 8 (53.3) n (%). For the same molecule, the “Participants with TEAE: Severe” value (volunteers with CUD; 1 mg/d 5 d) was 1 (6.7) n (%), the “TEAEs by SOC: Cardiac disorders” value (volunteers with CUD; 1 mg/d 5 d) was 0 n (%) and the “TEAEs by SOC: Ear and labyrinth disorders” value (volunteers with CUD; 1 mg/d 5 d) was 0 n (%). For the same molecule, the “TEAEs by SOC: Gastrointestinal disorders” value (volunteers with CUD; 1 mg/d 5 d) was 4 (26.7) n (%), the “TEAEs by SOC: General disorders and administration site conditions” value (volunteers with CUD; 1 mg/d 5 d) was 0 n (%) and the “TEAEs by SOC: Infections and infestations” value (volunteers with CUD; 1 mg/d 5 d) was 0 n (%). For the same molecule, the “TEAEs by SOC: Injury, poisoning and procedural complications” value (volunteers with CUD; 1 mg/d 5 d) was 2 (13.3) n (%), the “TEAEs by SOC: Investigations” value (volunteers with CUD; 1 mg/d 5 d) was 2 (13.3) n (%) and the “TEAEs by SOC: Musculoskeletal and connective tissue disorders” value (volunteers with CUD; 1 mg/d 5 d) was 2 (13.3) n (%). The “TEAEs by SOC: Nervous system disorders” value (volunteers with CUD; 1 mg/d 5 d) was 3 (20.0) n (%), the “TEAEs by SOC: Psychiatric disorders” value (volunteers with CUD; 1 mg/d 5 d) was 2 (13.3) n (%) and the “TEAEs by SOC: Renal and urinary disorders” value (volunteers with CUD; 1 mg/d 5 d) was 0 n (%). For the same molecule, the “TEAEs by SOC: Respiratory, thoracic and mediastinal disorders” value (volunteers with CUD; 1 mg/d 5 d) was 0 n (%), the “TEAEs by SOC: Skin and subcutaneous tissue disorders” value (volunteers with CUD; 1 mg/d 5 d) was 1 (6.7) n (%) and the “reinstatement of THC seeking” value (squirrel monkeys; 1.5 µg kg^−1 oral) was “significantly reduced”. For the same molecule, the “% Inhibition” value (squirrel monkeys; [2]) was 80%, the ID100 (squirrel monkeys; [2]) was at most 1.5 µg/kg and the “genotoxic or mutagenic activity” value [1] was “did not show any genotoxic or mutagenic activity”. The “effect on equilibrium binding of [3H]CP55,940” value (human CB1) was “does not modify” and the “adverse effects on behavior (Irwin test) and body temperature” value (rats) was “did not show any adverse effects”.

Source: PMC10287566, “Signaling-specific inhibition of the CB1 receptor for cannabis use disorder: phase 1 and phase 2a randomized trials” (Nature Medicine, 2023)
